Experimental data reported in US10273290B2, “Hydrocarbon double-stapled stabilized HIV-1 GP41 heptad repeat domain peptides” (DANA-FARBER CANCER INSTITUTE, INC., priority 2009, dated 2019).
Bridge positions count the residues as written; N and C are the ends. Square brackets hold non-standard residues; d marks the D form. Peptide text beside a SMILES is read from it. S5 = C=CCCC[C@](C)(N)C(=O)O; Nle = CCCC[C@H](N)C(=O)O

How the values were obtained:
[1] = system: pepsin; assay: Protease resistance assay, pepsin at pH 2
Summary of the method: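 Peptide from a 1 mM DMSO stock was incubated with pepsin in its appropriate buffer. Intact peptide was quantified over time by serial LC-MS injections, normalized to a 100 μM acetylated tryptophan carboxamide internal standard. Half-life came from nonlinear regression of the exponential decay.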

[2] = Chymotrypsin, pH 7
Text: Table printed on a drawing sheet, FIG. 17C
Title: Chymotrypsin, pH 7
First reader's note: The table also serves as the legend of the plot of fraction intact over time; the line and marker symbols are left out.

[3] = system: HIV-1 strains HXBc2, ADA, and HXBc2P 3.2; assay: Luciferase-based HIV-1 infectivity assay, three strains; assay type: cell-based
Method: Also the direct inhibitory activity of modified polypeptides and the antibodies targeted thereto can be quantified based upon their capacity to directly block HIV infection of CD4-positive and CCR5-expressing canine thymus cells. […] The identical experiment is performed with the amphotropic murine leukemia virus (AMLV), to monitor for any nonspecific effects of the modified polypeptides or antibodies.
HIV-1 infectivity assays were performed using known methods (Madani et al., 2007 Inhibition of human immunodeficiency virus envelope glycoprotein-mediated single cell lysis by low-molecular-weight antagonists of viral entry. J Virol, 81: 532-538; and Si et al., 2001 Envelope glycoprotein determinants of neutralization resistance in a simian-human immunodeficiency virus (SHIV-HXBc2P 3.2) derived by passage in monkeys. J Virol, 75:4208-4218; both incorporated herein by reference). […] Virus-containing supernatants were harvested 24-30 hr after transfection, filtered, aliquoted, and stored at −80° C. Target cells were seeded at a density of 6×10^3 cells/well in 96-well plates 24 hours prior to infection. Cf2Th-CD4-CCR5 cells were used for infections by viruses with the ADA, YU2, and A-MLV envelope glycoproteins, and Cf2Th-CD4-CXCR4 cells used for HXBc2, HXBc2P 3.2, and A-MLV. On the day of infection, the structured peptides (0-3 μM) were added to recombinant viruses (10,000 RT units) to a final volume of 50 μL and incubated at 37° C. for 30 min. Media was then removed and the target cells incubated with virus-peptide mixture for 48 hours at 37° C. The media was again removed and the cells lysed with 30 μL of passive lysis buffer (Promega) and three freeze-thaw cycles.
Recombinant HIV-1 bearing the envelope glycoproteins from three distinct HIV-1 strains, HXBc2, ADA, and HXBc2P 3.2, and a negative control virus bearing the amphotropic murine leukemia virus (A-MLV) envelope glycoproteins, were evaluated.

[4] = system: resistant primary R5 isolate YU2; assay: Luciferase-based HIV-1 infectivity assay, YU2; assay type: cell-based; settings: compared to T649v
Text: Also the direct inhibitory activity of modified polypeptides and the antibodies targeted thereto can be quantified based upon their capacity to directly block HIV infection of CD4-positive and CCR5-expressing canine thymus cells. Recombinant HIV-1 viruses (eg. HXBc2, YU2, and additional strains available through the NIH AIDS Research and Reference Reagent Program) expressing firefly luciferase and containing the indicated envelope glycoproteins can be used to infect Cf2Th-CD4-CCR5/CXCR4 cells in the presence of serially diluted modified HIV-1 gp41 polypeptides or antibodies targeted thereto After 48 hours, the cells are lysed and luciferase activity is quantified (Si, Z. H., M. Cayabyab, and J. Sodroski, Journal of Virology, 2001. 75(9): p. 4208-4218 Si, Z. H., et al., PNAS, 2004. 101(14): p. 5036-5041). The identical experiment is performed with the amphotropic murine leukemia virus (AMLV), to monitor for any nonspecific effects of the modified polypeptides or antibodies. […]
HIV-1 infectivity assays were performed using known methods (Madani et al., 2007 Inhibition of human immunodeficiency virus envelope glycoprotein-mediated single cell lysis by low-molecular-weight antagonists of viral entry. J Virol, 81: 532-538; and Si et al., 2001 Envelope glycoprotein determinants of neutralization resistance in a simian-human immunodeficiency virus (SHIV-HXBc2P 3.2) derived by passage in monkeys. J Virol, 75:4208-4218; both incorporated herein by reference). […] D-luciferin (50 μL of 1 mM stock in 100 μL luciferin buffer) is then added to each well and luciferase activity measured using a luminometer (EG&G Berthold).
To assess the functional impact of hydrocarbon stapling on gp41-based fusion inhibitor activity, SAH-gp41 peptides were tested and compared to their unmodified counterparts in a luciferase-based HIV-1 infectivity assay. Recombinant HIV-1 bearing the envelope glycoproteins from three distinct HIV-1 strains, HXBc2, ADA, and HXBc2P 3.2, and a negative control virus bearing the amphotropic murine leukemia virus (A-MLV) envelope glycoproteins, were evaluated. […]

CCCC[C@H](NC(C)=O)C(=O)N[C@H](C(=O)N[C@@H](Cc1c[nH]c2ccccc12)C(=O)N[C@@]1(C)CCCC=CCCC[C@@](C)(C(=O)N[C@@H](CCC(=O)O)C(=O)N[C@H](C(=O)N[C@@H](CC(N)=O)C(=O)N[C@@H](CC(N)=O)C(=O)N[C@@H](Cc2ccc(O)cc2)C(=O)N[C@H](C(=O)N[C@@H](CO)C(=O)N[C@@H](CC(C)C)C(=O)N[C@H](C(=O)N[C@@H](Cc2c[nH]cn2)C(=O)N[C@@H](CO)C(=O)N[C@@H](CC(C)C)C(=O)N[C@H](C(=O)N[C@@H](CCC(=O)O)C(=O)N[C@@H](CCC(=O)O)C(=O)N[C@@H](CO)C(=O)N[C@@H](CCC(N)=O)C(=O)N[C@@H](CC(N)=O)C(=O)N[C@@H](CCC(N)=O)C(=O)N[C@@]2(C)CCCC=CCCC[C@@](C)(C(=O)N[C@@H](CCC(N)=O)C(=O)N[C@@H](CCC(=O)O)C(=O)N[C@@H](CC(C)C)C(=O)N[C@@H](CC(C)C)C(=O)N[C@@H](CCC(=O)O)C(N)=O)NC(=O)[C@H](CC(N)=O)NC(=O)[C@H](CCCCN)NC(=O)[C@H](CCC(=O)O)NC2=O)[C@@H](C)CC)[C@@H](C)CC)[C@@H](C)O)[C@@H](C)CC)NC(=O)[C@H](CC(=O)O)NC(=O)[C@H](Cc2c[nH]c3ccccc23)NC(=O)[C@H](CCC(=O)O)NC1=O)[C@@H](C)O [SAH-gp41(626-662)(A, F)] (Ac-[Nle]TW[S5]EWD[S5]EINNYTSLIHSLIEESQNQ[S5]EKN[S5]QELLE-NH2; staple 4-8, 28-32; N-terminus and C-terminus assumed)
half-life at 25 μM ([1]; pepsin (isolated protease) in buffer, pH 2): 34 h | acid protease resistance, in words ([1]; pepsin at pH 2): striking acid protease resistance | Half-Life [2]: 5.58 h | anti-HIV-1 (anti-viral) activity, in words [3]: potent anti-viral activity | anti-YU2 activity, in words [4]: enhanced anti-YU2 activity
